According to article PMC7822874, “Chemoprotective antimalarials identified through quantitative high-throughput screening of Plasmodium blood and liver stage parasites” (Scientific Reports, 2021):
Like-named read-outs stand apart in the source and are kept apart here.

Test system: Plasmodium falciparum Dd2 asexual blood stage parasites
Test: microbe, parasite or virus in culture
Set-up: species or system Plasmodium falciparum Dd2 in human erythrocytes; single determination (one 11-point concentration-response curve)
Details: Plasmodium falciparum, DD2, Erythrocyte, 72 h

CCCc1nc2ccc(NC(=O)c3cccs3)cc2c(=O)n1Cc1ccc(Cl)cc1 [MLS000569177-01]
AC50 (read-out: AC50): 8.41 µM

COc1ccc(Nc2cc(C)c3cc(NC(=O)c4cc(OC)cc(OC)c4)ccc3n2)cc1 [NCGC00124306-01]
AC50 (read-out: AC50): 0.75 µM

N#Cc1ccc(CN2CC[C@@H]3C(=O)NCCCCCCN(Cc4ccncc4)[C@@H]3C2)cc1 [NCGC00467216-01]
AC50 (read-out: AC50): 10.6 µM

CC1(c2ccccc2)N(Cc2ccccc2)C(=O)OC12CCN(Cc1cccc(O)c1)CC2 (stereo not shown) [NCGC00415604-01]
AC50 (read-out: AC50): 8.41 µM

CCOC(=O)N1CCN(C(=O)c2ccc3c(c2)N(C)C(=O)/C(=C\c2ccc(OCC)c(OC)c2)S3)CC1 [MLS001030648-01]
AC50 (read-out: AC50): 6.68 µM

Cc1noc(C)c1-c1cc2cc(CN(C)C)oc2c(NCCOc2ccccc2)n1 [NCGC00417493-01]
AC50 (read-out: AC50): 15.3 µM

O=C(Nc1ccc2c(N3CCCC3)ncnc2c1)c1ccc(Br)cc1 [NCGC00425477-01]
AC50 (read-out: AC50): 4.73 µM

Cc1oc2ccc(O)c(CN(C)Cc3ccccc3)c2c1C(=O)Nc1cccc(C(F)(F)F)c1 [NCGC00115691-01]
AC50 (read-out: AC50): 2.11 µM

O=C(c1ccco1)c1cn(CCOc2ccc(F)cc2)c2ccccc12 [NCGC00101884-01]
AC50: 6.68 µM

CC(C)CN(CCNC(=O)c1cc(-c2ccc(Cl)s2)nc2ccccc12)CC(C)C [NCGC00104475-01]
AC50 (read-out: AC50): 7.5 µM

O=c1c2ccccc2sc2nc(C3CCCCC3)n(Cc3ccco3)c(=O)c12 [MLS000084065-01]
AC50 (read-out: AC50): 7.5 µM

COc1ccc(C2=C(Nc3ccccc3)c3ccccc3C2=O)cc1 [MLS000572234-01]
AC50 (read-out: AC50): 9.44 µM

CCn1cc(CN2CCCC23CCN(c2cc(C)nc4ccccc24)CC3)c(C)n1 [NCGC00442249-01]
AC50 (read-out: AC50): 4.22 µM

CCCCn1cc([S+](=O)([O-])c2ccc(Cl)cc2)c(=O)c2cc(F)c(N3CCCCC3)cc21 [NCGC00123723-01]
AC50 (read-out: AC50): 15 µM

COc1ccc(CCN(C)C(=O)CC(c2cccc(F)c2)c2cn(C)c3ccccc23)cc1OC (stereo not shown) [NCGC00473446-01]
AC50 (read-out: AC50): 8.41 µM

CCOc1ccc(-c2nonc2NC(=O)c2ccc(C)cc2)cc1OCC [NCGC00116031-01]
AC50 (read-out: AC50): 1.68 µM

CCOC(=O)C1(Cc2cccc(Cl)c2)CCCNC1 (stereo not shown) [NCGC00430131-01]
AC50 (read-out: AC50): 8.41 µM

Cn1nc(C(F)(F)F)c(-c2ccc(F)cc2)c1NC(=O)Nc1ccc(F)cc1 [MLS000830769-01]
AC50 (read-out: AC50): 1.88 µM

O=C1COCC2(CN(Cc3ccsc3)C2)CN1Cc1cccc(OC(F)(F)F)c1 [NCGC00418928-01]
AC50 (read-out: AC50): 17.2 µM

COc1ccccc1N1CCN(Cc2cc(C)c(C)cc2O)CC1 [MLS000571139-01]
AC50 (read-out: AC50): 0.376 µM

CCN1CCN(Cc2ccc(NC(=O)c3cc(NC(=O)c4cc(-c5ccc(OC)cc5)n[nH]4)cc(OC)c3)cc2C(F)(F)F)CC1 [MLS000911571-01]
AC50 (read-out: AC50): 0.168 µM

COc1cccc(CN2CCc3c(cc(C(=O)NCc4ccccn4)n3C)C2)c1 [NCGC00430584-01]
AC50 (read-out: AC50): 15 µM

CCCC(O)c1nc2ccccc2n1CCCCOc1ccc(OC)cc1 (stereo not shown) [NCGC00119455-01]
AC50 (read-out: AC50): 15 µM

COc1ccc(CN2C[C@H]3CN(Cc4c[nH]c5ccccc45)CCN3C2=O)cc1 [NCGC00392270-01]
AC50 (read-out: AC50): 3.85 µM

CC(C)c1ccc(CC(=O)N2CCCc3ncc(C(=O)NCCc4c[nH]c5ccccc45)cc32)cc1 [NCGC00420032-01]
AC50 (read-out: AC50): 15 µM

COc1cccc(NC(=O)c2ccc(-c3nnc4ccc(NC(=O)C5CCC5)cn34)cc2)c1 [NCGC00429881-01]
AC50 (read-out: AC50): 3.76 µM

Cc1ccnc2nc(C(=O)Nc3cc(Cl)ccc3N3CCOCC3)nn12 [MLS000567033-01]
AC50 (read-out: AC50): 4.73 µM

O=C(NCCN1CCCC1)C1CN([S+](=O)([O-])c2cccs2)CC12CCCCC2 (stereo not shown) [NCGC00439935-01]
AC50 (read-out: AC50): 13.3 µM

O[C@H]1[C@H](NCC2CCCC2)[C@@H](c2ccccc2)C[C@H]1O [NCGC00395463-01]
AC50 (read-out: AC50): 6.11 µM

O=C1NCN(Cc2ccc(Cl)cc2)C12CCN(CC1CC1)CC2 [NCGC00478768-01]
AC50 (read-out: AC50): 9.68 µM

Cc1cc(Nc2ccc(Br)cc2)n2nc(C)nc2n1 [MLS000116653-01]
AC50 (read-out: AC50): 7.5 µM

COc1ccc(S(=O)(=O)N(C)C)cc1NC(C)C(=O)Nc1cccc(C#N)c1 (stereo not shown) [MLS000761043-01]
AC50 (read-out: AC50): 6.68 µM

Cc1ccccc1NC(=O)Nc1ccc2nc(N3CCN(C)CC3)cc(C)c2c1 [NCGC00126513-01]
AC50 (read-out: AC50): 1.5 µM

CC(=O)N1CCc2cc(Br)cc(S(=O)(=O)N3CCCCC3)c21 [MLS000936219-01]
AC50 (read-out: AC50): 5.96 µM

Cc1sc2[nH]c(-c3ccccn3)nc(=O)c2c1-c1ccccc1 [MLS000760132-01]
AC50 (read-out: AC50): 13.3 µM

CCc1ccc(CN2CCN(Cc3cc(Br)ccc3O)CC2)cc1 [MLS000673664-01]
AC50 (read-out: AC50): 2.11 µM

Cc1cc(C)c(CN2C(=O)c3ccccc3[S+](=O)([O-])c3ccc(C(=O)OCC4CCCO4)cc32)c(C)c1 (stereo not shown) [NCGC00127808-01]
AC50 (read-out: AC50): 6.68 µM

COc1cc2c(cc1Oc1ccccc1)NC(=O)C21CCN(c2cnccn2)CC1 [NCGC00416813-01]
AC50 (read-out: AC50): 2.17 µM

CC(C)=NOC(=O)c1c(C)noc1-c1snnc1C [MLS000834920-01]
AC50 (read-out: AC50): 6.68 µM

O=[S+]([O-])(c1ccccc1)N1CC(CNc2cccnc2)C2(CN(c3ccccc3)C2)C1 (stereo not shown) [NCGC00415961-01]
AC50 (read-out: AC50): 21.7 µM

CC(=O)Nc1nc2ccccc2n1Cc1ccc(Cl)cc1 [MLS000779302-01]
AC50 (read-out: AC50): 8.41 µM

COc1ccc(-n2cc(CNC3CCN(C)CC3)c(-c3cccc(F)c3)n2)cc1 [MLS000732463-01]
AC50 (read-out: AC50): 10.6 µM

Cc1ccc2nc(-c3ccccc3O)c(Nc3ccccc3C)n2c1 [NCGC00106804-01]
AC50 (read-out: AC50): 2.37 µM

COc1cc(O)c(C(CCN2CCOCC2)c2ccc3c(c2)OCO3)c(OC)c1 (stereo not shown) [MLS000879477-01]
AC50 (read-out: AC50): 4.22 µM

Fc1ccc(OC2CN(CC3CCCCC3)C2)cc1F [NCGC00476687-01]
AC50 (read-out: AC50): 17.2 µM

COc1ccc(-n2nc(C(=O)NCC(=O)N3CCN(c4ccccc4OC)CC3)c3ccccc3c2=O)cc1OC [MLS000936245-01]
AC50 (read-out: AC50): 6.68 µM

CCC1=Nc2cc(C(=O)NCc3ccco3)ccc2Sc2ccc(C)cc21 [MLS000583106-01]
AC50 (read-out: AC50): 8.41 µM

CCCCOc1ccc(NC2=NC(N)=NC3(CCCCC3)N2)cc1 [MLS000109806-01]
AC50 (read-out: AC50): 8.41 µM

O=C(NCc1ccco1)c1ccc2c(c1)N(Cc1c(F)cccc1Cl)C(=O)c1ccccc1S2 [NCGC00108150-01]
AC50 (read-out: AC50): 13.3 µM

COc1cc(Br)c(C(C)NC(=O)c2cccc(Br)c2)cc1OC (stereo not shown) [MLS000325399-01]
AC50 (read-out: AC50): 2.11 µM

CCCC1=[N+](CC(=O)c2ccccc2)CCn2c(C)ccc21 [MLS000551171-01]
AC50 (read-out: AC50): 15 µM

Cc1cc(C(=O)Nc2cnn(Cc3ccc(Cl)cc3Cl)c2)no1 [MLS000087313-01]
AC50 (read-out: AC50): 9.44 µM

CCOC(=O)C1CCN(c2cc(=O)n(-c3ccccc3Cl)c(=O)[nH]2)CC1 [MLS000045867-01]
AC50 (read-out: AC50): 8.41 µM

CC(=O)Nc1ccc(CN2CC(N(C)c3ccccc3C)C2)cc1 [NCGC00476647-01]
AC50 (read-out: AC50): 12.2 µM

O=C1Nc2ccccc2CC12CCN2Cc1ccccn1 (stereo not shown) [NCGC00477299-01]
AC50 (read-out: AC50): 4.33 µM

CCCNCC(O)COc1ccccc1C(=O)CCc1ccccc1 (stereo not shown) [NCGC00015819-06]
AC50 (read-out: AC50): 0.841 µM

CN1CCC2(C1)CN(Cc1ccccc1)c1ccc(C(=O)Nc3ccc(F)cc3)cc12 (stereo not shown) [NCGC00419355-01]
AC50 (read-out: AC50): 19.3 µM

Cc1ccc(CNCC(O)(c2ccccc2)c2ccc(Cl)cc2)cc1 (stereo not shown) [MLS000721405-01]
AC50 (read-out: AC50): 2.99 µM

O=c1oc2ccccc2c(N2CCCCC2)c1CN1CCCC1 [MLS000525481-01]
AC50 (read-out: AC50): 9.44 µM

CN1CCCC(CN(CCc2ccccc2)C(=O)c2cc(C#N)cn2C)C1 (stereo not shown) [NCGC00443707-01]
AC50 (read-out: AC50): 9.44 µM

Cc1cc(Nc2cc(Cl)cc(Cl)c2)nc(N)n1 [MLS000861564-01]
AC50 (read-out: AC50): 6.68 µM
